This is an account of results in patent publication US8216782B2, “PTTG1 as a biomarker for cancer treatment” (Cedars-Sinai Medical Center, priority 2008, dated 2012).

Entries after “also recorded” stand apart in the source; their conditions may differ.

Test [1] relates to HCT116 WT cells. Briefly: WST-1 cell proliferation assay. The class given is cell-based. To be noted: Homo sapiens, HCT-116, 48 h, read-out: cells remaining viable. How it is done:
(§1) FIG. 4 depicts that PTTG1 regulates cell response to Aurora Kinase inhibition, in accordance with an embodiment of the present invention. (A) PTTG1^−/− cell proliferation was attenuated in response to Aurora Kinase A siRNA (mean±S.D., n=3. P<0.05 vs WT). Cells were seeded into 96-well plates, cultured overnight, and then transfected with siRNAs (100 nM). After 72 hours, premixed WST-1 cell proliferation reagent (10 ul) was added to each well. Cells were incubated for a further four hours and shaken thoroughly for one minute before measurement. […] Cells were seeded into 96-well plates, cultured overnight, and then treated with drug as indicated for 48 hours. Viable cells were measured using Premixed WST-1 cell proliferation reagent. (C) Anchorage-dependent colony formation assay was performed as described herein. […] (mean±S.D., n=3. P<0.05 vs WT) (D) Western blot showing that over-expressed PTTG1 rescued PTTG1^−/− sensitivity to Aurora Kinase inhibitor III (12.5 uM) (mean±S.D., n=3. P>0.05 vs WT); PTTG1 knock-down enhanced WT cell sensitivity to Aurora Kinase inhibitor III (12.5 uM) (mean±S.D., n=3. P>0.05 vs PTTG1^−/−). PTTG1^−/−=PTTG1-null or KO cells.
(§2) Cell proliferation was evaluated using WST-1 cell proliferation reagent (obtained from Clontech Laboratories, Inc.; Mountain View, Calif.). Briefly, 90 μl cells were seeded into 96-well plates and cultured overnight, treated with drugs for 48 hours, and 10 μl premixed WST-1 cell proliferation reagent added. Cells were incubated for a further four hours, shaken and absorbance measured at 450 nm using a Victor 3 multiwell plate reader (obtained from PerkinElmer, Inc.; Waltham, Mass.). Cell viability rate was calculated for each well as A450 treated cells/A450 control cells×100% (A450: OD value at 450 nm).
(Tetrazolium dyes change colour on reduction, which living cells bring about.)

In test [2] the test system is HCT116 PTTG1−/− cells. Nature of the test: WST-1 cell proliferation assay. The class given is cell-based. How it is done: as §1, §2
Test [3] concerns Aurora Kinase A. Nature of the test: Kinase activity of Aurora Kinase A immunoprecipitated from treated HCT116 cells. The class given is cell-based. To be noted: PTTG1−/− vs WT HCT116 cells. The source says:
(§3) FIG. 6 depicts PTTG1 and DNA damage pathway, in accordance with an embodiment of the present invention. […] (B) Aurora Kinase A activity was less inhibited after DNA damage treatment in PTTG1^−/− cells. Lane C1, positive control with Aurora Kinase A; lane C2, negative control without Aurora Kinase A; lane WT, Aurora Kinase A co-immunoprecipitated from HCT116 WT cells after doxorubicin treatment; Lane −/−, Aurora Kinase A immunoprecipitated from HCT116 PTTG1^−/− cells after doxorubicin treatment. Aurora Kinase A activity is higher in PTTG1^−/− than WT HCT116 cells. (C) C, PTTG1 WT plasmid; M3, PTTG1 S165A mutation; M9, PTTG1 S181A mutation. Plasmids were transfected into HCT116 PTTG1^−/− cells and treated with proteosome inhibitor LLnL to enrich phosphorylated PTTG1. Arrow depicts the major band. […] (D) WT, PTTG1 WT plasmid; M9, PTTG1 S181A mutation were transfected into HCT116 PTTG1^−/− and co-immunoprecipitation performed. […] (E) Proposed signaling pathway for PTTG1 action in G2 DNA damage checkpoint.
Aurora Kinase A activity is inhibited by DNA damage (Krystyniak et al., 2006). The inventors therefore tested Aurora Kinase A activity in HCT116 WT and PTTG1^−/− cells after treatment with doxorubicin. […] Phosphorylated PTTG1 may therefore act with Aurora Kinase A and play a role in the DNA damage-induced G2 checkpoint. […]

The test system of test [4] is HCT116 WT cells. Nature of the test: Anchorage-dependent colony formation assay. Conditions: 0.16 μM doxorubicin. The class given is cell-based. As to the method:
(§4) Briefly, 20,000 cells were plated in a six-well culture dish, allowed to attach overnight and treated with depicted drug concentrations. Cells were cultured in standard culture medium containing indicated treatments for twelve days and medium re-freshened every three days. Colonies were stained with 0.5% crystal violet in methanol/acetic acid (3:1) and those composed of >50 cells were counted.

The test system of test [5] is HCT116 PTTG1−/− cells. Nature of the test: Anchorage-dependent colony formation assay. The test is classed as cell-based. To be noted: PTTG1−/− colonies, 0.16 μM doxorubicin. How it is done: as §4
In test [6] the test system is PTTG1. Nature of the test: Western blot of PTTG1 phosphorylation after DNA damage. The test is classed as cell-based. To be noted: 24 hours, 5 μM doxorubicin.
Text: as §3
In general terms: In western blotting, separated proteins are transferred to a membrane and probed.

Test [7] has as its system HCT116 cells. Nature of the test: Apoptosis by Tunel assay and activated caspase 3 levels. The test is classed as cell-based.
Test [8] relates to WT HCT116 tumors. Briefly: Subcutaneous tumor implant in nude mice. The test is classed as in vivo. Conditions: 50 mg/kg, 17 days. As to the method:
Tumor volume was measured twice a week.

The subject of test [9] is HCT116 WT cells. Nature of the test: β-galactosidase staining (senescence). The test is classed as cell-based. Conditions: 0.313 uM, 48 hrs. The source says: (§5) Cells were fixed and stained with β-galactosidase staining kit (Sigma).
Test [10] deals with HCT116 PTTG1−/− cells. Briefly: β-galactosidase staining (senescence). To be noted: 0.313 uM, 48 hrs. The class given is cell-based.
Text: as §5

Test [11] relates to PTTG1−/− HCT116 tumors. Briefly: Subcutaneous tumor implant in nude mice. Conditions: 50 mg/kg, 17 days.
Method: Tumor volume was measured twice a week. Mice were sacrificed at day 18 and tumors were collected and weighted.
In test [12] the test system is p21. Briefly: p21 expression after treatment. Conditions: WT and PTTG1−/− cells. The test is classed as cell-based. From the text:
FIG. 10 depicts P21 level is higher in PTTG1^−/− cells than WT. P21 induces senescence.

In the case of `COc1cccc2c1C(=O)c1c(O)c3c(c(O)c1C2=O)C[C@@](O)(C(=O)CO)C[C@@H]3O[C@H]1C[C@H](N)[C@H](O)[C@H](C)O1` [doxorubicin], the viability at 1.25 µM in test [1] is 55%; in test [2] (Homo sapiens, HCT-116, 48 h, read-out: cells remaining viable), 27%. In addition, the “sensitivity of PTTG1−/− cell growth versus WT (WST-1)” value in test [2] (PTTG1−/− vs WT HCT116 cells) was “more sensitive”. Further, the “Aurora Kinase A activity after doxorubicin treatment” value in test [3] was “less suppressed in PTTG1^−/− than WT cells”. The figures for the colonies survived in [4] and in test [5] were 74% and 36%, respectively. Also, the “phosphorylated PTTG1” value in test [6] is listed as “Increased phosphorylated PTTG1”.

For `O=C(CCCCCCC(=O)Nc1ccccc1)NO` [SAHA, suberoylanilide hydroxamic acid], the apoptosis result in [7] was “did not cause apoptosis”. The tumor growth entry in test [8] is “did not show any difference between control and treated group; also recorded: had no effect”; in test [11], “significantly inhibited”. For the same molecule, the “senescent cells (β-galactosidase staining)” value in test [9] stood at 7%; in test [10], 43%. The p21 expression entry in test [12] is “enhanced p21 expression”.
